Test results as given in patent US8557222B2, “Radiopharmaceutical imaging of neurodegenerative diseases” (priority 2008, dated 2013).

Columns and labels:
[1] = system: β-amyloid plaque; experiment: PET imaging of β-amyloid plaque with ^18F-AV-45 (fused/simulated dual radiopharmaceutical images); type: in vivo, human; details: imaged between 70 and 80 minutes, simulated fused image
Experimental: (§1) Data was generated from the radiopharmaceutical imaging of β-amyloid plaque and nigrostriatal dopaminergic degeneration utilizing dual radiopharmaceuticals. The radiopharmaceuticals utilized included ^18F-AV-45, which targets β-amyloid plaque and ^18F-AV-133, which targets nigrostriatal neurons. The radiopharmaceuticals were administered via intravenous injection to subjects who were clinically diagnosed with Parkinson's Disease (PD) or Alzheimer's Disease (AD).
(§2) Data was analyzed for PD patients (PD_AV133) and Healthy Controls (HC_AV133) as well as for AD patients (AD_AV45) and Healthy Controls (HC_AV45). Data and images derived from subjects in each category were analyzed individually. Data and images from an average of 4 subjects in each respective category was also analyzed and used as the basis of this protocol. The optimal imaging protocol was judged based on the following criteria: clarity of images/data in the cortical, grey, and white volumes of interest (VOIs) of the brain (relating to diagnosis of AD) and the striatal VOIs of the brain (relating to diagnosis of PD/DLB); ease and level of certainty of the individual diagnoses of the presence or absence of AD, PD, and DLB; minimum level of radiation injected into a patient; and minimum protocol completion time.
(§3) FIGS. 1, 4, 7 and 10 were created by the fusion of two separate image data sets, one from a PET scan of an ^18F amyloid plaque-binding radiopharmaceutical (^18F-AV-45) and one from a PET scan of an ^18F VMAT2 targeted radiopharmaceutical (^18F-AV-133). FIG. 1 is a simulated image of the brain of a healthy individual with no observable amyloid plaques and normal dopaminergic neurons (imaged between 70 and 80 minutes). […] This image pattern is consistent with a pure AD diagnosis, with no evidence of loss of striatal neurons (which would be observed if PD or DLB were also present). […] This image pattern is consistent with a pure PD diagnosis, without evidence of AD amyloid plaque pathology.
(§4) The Statistical Parametric Mapping (SPM2) application in MATLAB® (Version 7.3 R2006b, MathWorks, Inc.) was used to align the raw images and create a mean image from the image set. The mean image was normalized to a SPECT template, although in other experiments, other templates were used. Using the image viewer application in MRICro, the normalized mean image was compared with the template image to confirm that the two images align. […] Standardized uptake values (SUVs) were calculated from the counts extracted from the images. […]
(§5) The cortical regions are where amyloid plaques are found in the brain using the ^18F-AV-45 radiopharmaceutical, while the striatal regions contain dopaminergic neurons detected with the ^18F-AV-133 radiopharmaceutical. […]

[2] = Brain washout of first radiopharmaceutical in the dual imaging protocol; type: in vivo, human; details: 10 mCi intravenous; at second acquisition, 30 minutes after ^18F-AV-133 given about 50 minutes after start of protocol
From the text: The cortical regions are where amyloid plaques are found in the brain using the ^18F-AV-45 radiopharmaceutical, while the striatal regions contain dopaminergic neurons detected with the ^18F-AV-133 radiopharmaceutical. […] FIGS. 5 and 6 show simulated activity curves for cortical and striatal regions of the brain, respectively, for an individual with AD. FIGS. 8 and 9 show simulated activity curves for cortical and striatal regions of the brain, respectively, of an individual with PD while FIGS. 11 and 12 show simulated activity curves for cortical and striatal regions of the brain, respectively, of an individual with AD and PD. […] Whenever the two radiopharmaceuticals were considered as being simultaneously present in the brain, the SUVs from both radiopharmaceuticals for each region were summed together, and the summed SUVs were plotted. This allowed for the simulation/prediction of the interaction and possible interference of activity of one radiopharmaceutical with the other when both are present in the brain during the imaging of the subject.
Through analyzing and experimenting with the plots and images described above, a protocol for the simultaneous imaging of AD plaques and dopaminergic neuronal degeneration was created. […] The total protocol time was about 80 to 90 minutes. […]

[3] = target: T1, VMAT2 (Homo sapiens, UniProt Q05940); experiment: PET imaging of nigrostriatal dopaminergic neurons with ^18F-AV-133 (fused/simulated dual radiopharmaceutical images); type: in vivo; details: imaged between 70 and 80 minutes, simulated fused image
T1 construct: from tissue; host or cells: brain (striatal regions, dopaminergic neurons) of living human subjects, in vivo PET
Experimental: as §1, §2, §3, §4, §5

[4] = FIG. 4, individual with clinical signs of AD
[5] = FIG. 7, individual exhibiting symptoms of PD
[6] = FIG. 10, individual with both AD and PD

T1 sequence (Q05940 whole entry, the tested form may be a part): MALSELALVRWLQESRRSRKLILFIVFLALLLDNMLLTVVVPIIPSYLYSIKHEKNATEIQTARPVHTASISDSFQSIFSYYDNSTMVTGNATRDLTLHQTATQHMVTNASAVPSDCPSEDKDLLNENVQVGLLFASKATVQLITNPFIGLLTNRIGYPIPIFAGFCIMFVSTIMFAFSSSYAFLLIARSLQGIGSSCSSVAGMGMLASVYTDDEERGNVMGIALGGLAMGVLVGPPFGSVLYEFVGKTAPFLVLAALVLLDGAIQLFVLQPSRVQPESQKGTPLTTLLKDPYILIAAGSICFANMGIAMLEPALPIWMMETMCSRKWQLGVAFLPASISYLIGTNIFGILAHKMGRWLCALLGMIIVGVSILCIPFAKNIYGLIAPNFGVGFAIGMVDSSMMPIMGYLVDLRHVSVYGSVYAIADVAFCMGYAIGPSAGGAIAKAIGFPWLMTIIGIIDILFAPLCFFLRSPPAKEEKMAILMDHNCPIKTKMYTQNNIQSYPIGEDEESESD

Structure (SMILES): CNc1ccc(/C=C/c2ccc(OCCOCCOCC[18F])nc2)cc1 [^18F-AV-45, (E)-4-(2-(6-(2-(2-(2-[^18F]fluoroethoxy)ethoxy)ethoxy)pyridin-3-yl)vinyl)-N-methylbenzenamine]
- cortical brain signal from ^18F-AV-45 ([1]; FIG. 1, healthy individual): no appreciable cortical brain signal
- ^18F-AV-45 radiopharmaceutical signal (amyloid plaque deposits) [1, 4]: Amyloid plaque deposits are visible in the frontal region of the brain
- amyloid signal in the cortical brain regions from ^18F-AV-45 [1, 5]: does not show evidence of amyloid signal in the cortical brain regions
- ^18F-AV-45 retention (amyloid plaques) [1, 6]: retention in cortical brain
- washout and radioactive decay of ^18F-AV-45 from brain [2]: essentially complete

Structure (SMILES): COc1cc2c(cc1OCCC[18F])CCN1C[C@@H](CC(C)C)[C@H](O)C[C@H]21 [^18F-AV-133, (2R,3R,11bR)-9-(3-[18F]fluoropropoxy)-3-isobutyl-10-methoxy-2,3,4,6,7,11b-hexahydro-1H pyrido[2,1a]isoquinolin-2-ol]
- signal in the nigrostriatal region from ^18F-AV-133 ([3]; FIG. 1, healthy individual): strong signal in the nigrostriatal region
- uptake of ^18F-AV-133 in the nigrostriatal region of the brain [3, 4]: normal uptake
- intensity of ^18F-AV-133 in the striatal regions [3, 5]: lack of intensity in the striatal regions
- uptake of AV-133 in the striatal regions [3, 6]: diminished uptake
